{"source": "patent US20080200442A1", "about": "“Compositions and Methods for Treating, Reducing, Ameliorating, or Preventing Infections of the Ear or Upper Respiratory Tract” (priority 2007, published 2008)"}
{"system": "Clostridium perfringens (KZ 210)", "assay": "microbe, parasite or virus in culture", "assay_type": "cell-based", "settings": "not given", "units": {"MIC90": "µg/mL"}}
{"smiles": "NC1CCCCN(c2c(F)cc3c(=O)c(C(=O)O)cn(C4CC4)c3c2Cl)C1", "note": "(stereo not shown) [Compound Having Formula III]", "MIC90": 0.2}
{"system": "Peptostreptococcus micros (GIFU 7824)", "assay": "In vitro anti-bacterial activity (MIC90), anaerobic reference bacteria", "assay_type": "cell-based", "settings": "Parvimonas micra", "units": {"MIC90": "µg/mL"}}
{"smiles": "NC1CCCCN(c2c(F)cc3c(=O)c(C(=O)O)cn(C4CC4)c3c2Cl)C1", "note": "(stereo not shown) [Compound Having Formula III]", "MIC90": 0.2}
{"system": "Peptostreptococcus magnum (GAI 0664)", "assay": "In vitro anti-bacterial activity (MIC90), anaerobic reference bacteria", "assay_type": "cell-based", "settings": "not given", "units": {"MIC90": "µg/mL"}}
{"smiles": "NC1CCCCN(c2c(F)cc3c(=O)c(C(=O)O)cn(C4CC4)c3c2Cl)C1", "note": "(stereo not shown) [Compound Having Formula III]", "MIC90": 0.05}
{"system": "Propionibacterium acnes (GAI 5419)", "assay": "In vitro anti-bacterial activity (MIC90), anaerobic reference bacteria", "assay_type": "cell-based", "settings": "Cutibacterium acnes", "units": {"MIC90": "µg/mL"}}
{"smiles": "NC1CCCCN(c2c(F)cc3c(=O)c(C(=O)O)cn(C4CC4)c3c2Cl)C1", "note": "(stereo not shown) [Compound Having Formula III]", "MIC90": 0.2}
{"system": "Propionibacterium acnes (ATCC 6919)", "assay": "In vitro anti-bacterial activity (MIC90), anaerobic reference bacteria", "assay_type": "cell-based", "settings": "Cutibacterium acnes, ATCC6919", "units": {"MIC90": "µg/mL"}}
{"smiles": "NC1CCCCN(c2c(F)cc3c(=O)c(C(=O)O)cn(C4CC4)c3c2Cl)C1", "note": "(stereo not shown) [Compound Having Formula III]", "MIC90": 0.2}
{"system": "Propionibacterium acnes (ATCC 11828)", "assay": "In vitro anti-bacterial activity (MIC90), anaerobic reference bacteria", "assay_type": "cell-based", "settings": "Cutibacterium acnes, ATCC11828", "units": {"MIC90": "µg/mL"}}
{"smiles": "NC1CCCCN(c2c(F)cc3c(=O)c(C(=O)O)cn(C4CC4)c3c2Cl)C1", "note": "(stereo not shown) [Compound Having Formula III]", "MIC90": 0.39}
{"system": "Bacteroides fragillis (GAI 0675)", "assay": "In vitro anti-bacterial activity (MIC90), anaerobic reference bacteria", "assay_type": "cell-based", "settings": "not given", "units": {"MIC90": "µg/mL"}}
{"smiles": "NC1CCCCN(c2c(F)cc3c(=O)c(C(=O)O)cn(C4CC4)c3c2Cl)C1", "note": "(stereo not shown) [Compound Having Formula III]", "MIC90": 0.1}
{"system": "Bacteroides thetaiotaomicron (GAI 0659)", "assay": "In vitro anti-bacterial activity (MIC90), anaerobic reference bacteria", "assay_type": "cell-based", "settings": "anaerobic; Bacteroides thetaiotaomicron (GAI 0659); read-out: MIC90", "units": {"MIC90": "µg/mL"}}
{"smiles": "NC1CCCCN(c2c(F)cc3c(=O)c(C(=O)O)cn(C4CC4)c3c2Cl)C1", "note": "(stereo not shown) [Compound Having Formula III]", "MIC90": 0.2}
{"system": "Bacteroides vulgatus (GAI 0673)", "assay": "In vitro anti-bacterial activity (MIC90), anaerobic reference bacteria", "assay_type": "cell-based", "settings": "Phocaeicola vulgatus", "units": {"MIC90": "µg/mL"}}
{"smiles": "NC1CCCCN(c2c(F)cc3c(=O)c(C(=O)O)cn(C4CC4)c3c2Cl)C1", "note": "(stereo not shown) [Compound Having Formula III]", "MIC90": 0.1}
{"system": "Veillonella parvula (GAI 5602)", "assay": "In vitro anti-bacterial activity (MIC90), anaerobic reference bacteria", "assay_type": "cell-based", "settings": "not given", "units": {"MIC90": "µg/mL"}}
{"smiles": "NC1CCCCN(c2c(F)cc3c(=O)c(C(=O)O)cn(C4CC4)c3c2Cl)C1", "note": "(stereo not shown) [Compound Having Formula III]", "MIC90": 0.1}
{"system": "Moraxella species", "assay": "In vitro anti-bacterial activity (MIC90), ophthalmologic clinical bacteria isolates", "assay_type": "cell-based", "settings": "Gram-negative", "units": {"MIC90": "µg/mL"}}
{"smiles": "NC1CCCCN(c2c(F)cc3c(=O)c(C(=O)O)cn(C4CC4)c3c2Cl)C1", "note": "(stereo not shown) [Compound Having Formula III]", "MIC90": 0.13}
{"system": "Pseudomonas aeruginosa", "assay": "In vitro anti-bacterial activity (MIC90), ophthalmologic clinical bacteria isolates", "assay_type": "cell-based", "settings": "Gram-negative", "units": {"MIC90": "µg/mL"}}
{"smiles": "NC1CCCCN(c2c(F)cc3c(=O)c(C(=O)O)cn(C4CC4)c3c2Cl)C1", "note": "(stereo not shown) [Compound Having Formula III]", "MIC90": 4}
{"system": "Haemophilus influenzae", "assay": "In vitro anti-bacterial activity (MIC90), ophthalmologic clinical bacteria isolates", "assay_type": "cell-based", "settings": "Gram-negative", "units": {"MIC90": "µg/mL"}}
{"smiles": "NC1CCCCN(c2c(F)cc3c(=O)c(C(=O)O)cn(C4CC4)c3c2Cl)C1", "note": "(stereo not shown) [Compound Having Formula III]", "MIC90": "≤ 0.06"}
{"system": "Staphylococcus aureus", "assay": "In vitro anti-bacterial activity (MIC90), ophthalmologic clinical bacteria isolates", "assay_type": "cell-based", "settings": "Gram-positive", "units": {"MIC90": "µg/mL"}}
{"smiles": "NC1CCCCN(c2c(F)cc3c(=O)c(C(=O)O)cn(C4CC4)c3c2Cl)C1", "note": "(stereo not shown) [Compound Having Formula III]", "MIC90": 1}
{"system": "Coagulase-negative Staphylococcus", "assay": "In vitro anti-bacterial activity (MIC90), ophthalmologic clinical bacteria isolates", "assay_type": "cell-based", "settings": "Gram-positive", "units": {"MIC90": "µg/mL"}}
{"smiles": "NC1CCCCN(c2c(F)cc3c(=O)c(C(=O)O)cn(C4CC4)c3c2Cl)C1", "note": "(stereo not shown) [Compound Having Formula III]", "MIC90": 0.5}
{"system": "Streptococcus pneumoniae", "assay": "In vitro anti-bacterial activity (MIC90), ophthalmologic clinical bacteria isolates", "assay_type": "cell-based", "settings": "Gram-positive", "units": {"MIC90": "µg/mL"}}
{"smiles": "NC1CCCCN(c2c(F)cc3c(=O)c(C(=O)O)cn(C4CC4)c3c2Cl)C1", "note": "(stereo not shown) [Compound Having Formula III]", "MIC90": 0.13}
{"system": "Corynebacterium species", "assay": "In vitro anti-bacterial activity (MIC90), ophthalmologic clinical bacteria isolates", "assay_type": "cell-based", "settings": "Gram-positive", "units": {"MIC90": "µg/mL"}}
{"smiles": "NC1CCCCN(c2c(F)cc3c(=O)c(C(=O)O)cn(C4CC4)c3c2Cl)C1", "note": "(stereo not shown) [Compound Having Formula III]", "MIC90": 2}
{"system": "Propionibacterium acnes", "assay": "In vitro anti-bacterial activity (MIC90), ophthalmologic clinical bacteria isolates", "assay_type": "cell-based", "settings": "Cutibacterium acnes, Gram-positive", "units": {"MIC90": "µg/mL"}}
{"smiles": "NC1CCCCN(c2c(F)cc3c(=O)c(C(=O)O)cn(C4CC4)c3c2Cl)C1", "note": "(stereo not shown) [Compound Having Formula III]", "MIC90": 0.25}
{"system": "Ofloxacin-resistant Staphylococcus aureus", "assay": "In vitro anti-bacterial activity (MIC90), ophthalmologic clinical bacteria isolates", "assay_type": "cell-based", "settings": "not given", "units": {"MIC90": "µg/mL"}}
{"smiles": "NC1CCCCN(c2c(F)cc3c(=O)c(C(=O)O)cn(C4CC4)c3c2Cl)C1", "note": "(stereo not shown) [Compound Having Formula III]", "MIC90": 8}
{"system": "Gentamycin-resistant Staphylococcus aureus", "assay": "In vitro anti-bacterial activity (MIC90), ophthalmologic clinical bacteria isolates", "assay_type": "cell-based", "settings": "not given", "units": {"MIC90": "µg/mL"}}
{"smiles": "NC1CCCCN(c2c(F)cc3c(=O)c(C(=O)O)cn(C4CC4)c3c2Cl)C1", "note": "(stereo not shown) [Compound Having Formula III]", "MIC90": 4}
{"system": "Gentamycin-resistant Pseudomonas aeruginosa", "assay": "In vitro anti-bacterial activity (MIC90), ophthalmologic clinical bacteria isolates", "assay_type": "cell-based", "settings": "not given", "units": {"MIC90": "µg/mL"}}
{"smiles": "NC1CCCCN(c2c(F)cc3c(=O)c(C(=O)O)cn(C4CC4)c3c2Cl)C1", "note": "(stereo not shown) [Compound Having Formula III]", "MIC90": 32}
{"system": "Penicillin-resistant Streptococcus pneumoniae", "assay": "In vitro anti-bacterial activity (MIC90), ophthalmologic clinical bacteria isolates", "assay_type": "cell-based", "settings": "not given", "units": {"MIC90": "µg/mL"}}
{"smiles": "NC1CCCCN(c2c(F)cc3c(=O)c(C(=O)O)cn(C4CC4)c3c2Cl)C1", "note": "(stereo not shown) [Compound Having Formula III]", "MIC90": 0.13}
